Entries after “also recorded” stand apart in the source; their conditions may differ.
What was measured:
[1] = target: T1, porcine pancreatic lipase (from pancreatin) (Sus scrofa, UniProt P00591)
T1 sequence (P00591 1-450): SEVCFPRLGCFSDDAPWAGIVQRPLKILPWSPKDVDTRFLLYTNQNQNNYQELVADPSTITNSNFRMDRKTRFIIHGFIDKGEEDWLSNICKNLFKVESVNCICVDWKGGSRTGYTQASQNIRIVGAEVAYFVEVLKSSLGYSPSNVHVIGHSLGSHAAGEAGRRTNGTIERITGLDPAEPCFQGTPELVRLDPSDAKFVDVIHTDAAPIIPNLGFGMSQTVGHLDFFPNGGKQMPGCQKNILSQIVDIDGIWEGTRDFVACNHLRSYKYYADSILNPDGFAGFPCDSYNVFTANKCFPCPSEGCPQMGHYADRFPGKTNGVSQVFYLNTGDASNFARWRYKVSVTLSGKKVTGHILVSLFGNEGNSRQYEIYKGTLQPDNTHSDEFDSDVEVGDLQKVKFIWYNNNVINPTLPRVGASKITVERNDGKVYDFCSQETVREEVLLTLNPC
T1 sequence (P02703 23-112 partner): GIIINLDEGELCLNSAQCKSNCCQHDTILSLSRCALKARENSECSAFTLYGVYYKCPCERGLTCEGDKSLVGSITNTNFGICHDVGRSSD

[2] = system: rabbit gastric lipase followed by porcine pancreatic lipase; experiment: Sequential in vitro digestion SGF (RGL) followed by SIF (PPL), pH-stat
Description: No measurements were taken in the gastric compartment due to limited ionisation of the target fatty acids.

CCCC(=O)OCC(COC(=O)CCC)OC(=O)CCC [tributyrin]
Initial rate of lipolysis ([1]; SIF alone, emulsion with 200 mg fat, pH 6.8, 37° C.): 223 ± 59 µmol/min
Overall extent of lipid digestion ([1]; back titration to pH 11.5, after SIF and SGF-SIF (FIG. 2)): 101.5±0.9%
Initial lipolysis rate in SIF during SGF-SIF digestion ([2]; after 90 min SGF with rabbit gastric lipase, emulsion with 200 mg fat): 44.1 ± 8.8 µmol/min
Hydrolysis in the stomach (gastric compartment of the model) ([2]; in words): considerable digestion; also recorded: extensive hydrolysis
Lipolysis by gastric lipase ([2]; indicated by decreased total fatty acid release in SIF after RGL pre-exposure): ~60%

Reference: patent US20250325511A1, “DIETARY BUTYRATE” (SOCIETE DES PRODUITS NESTLE S.A., priority 2019, published 2025)
